Experimental data reported in PubChem BioAssay (NCI).
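Grown in 96-well plates, cells were treated for 48 hours with each compound at five concentrations. Insufficient inhibition: endpoint recorded as highest concentration tested. Abbreviation: GI50, concentration required for 50% inhibition of growth. TGI marks complete inhibition of growth.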 Calls of active or inactive are those of the source. Cut-off read from the data, not from the text of the source: active = GI50 below about 0.43 µM; inactive = the rest.

How the values were obtained:
Assay in all cases: growth of human tumour cells (NCI), 48 h
A549 NSCLC = tested on: A549 NSCLC
LOX IMVI melanoma = tested on: LOX IMVI melanoma
NCI-H226 lung = tested on: NCI-H226 lung
OVCAR-8 ovarian = tested on: OVCAR-8 ovarian
SW-620 colon = tested on: SW-620 colon
U251 CNS = tested on: U251 CNS
UACC-257 melanoma = tested on: UACC-257 melanoma
MDA-MB-435 = tested on: MDA-MB-435
BT-549 breast = tested on: BT-549 breast

Row | SMILES | TGI (A549 NSCLC) [µM] | TGI (LOX IMVI melanoma) [µM] | TGI (NCI-H226 lung) [µM] | TGI (OVCAR-8 ovarian) [µM] | TGI (SW-620 colon) [µM] | TGI (U251 CNS) [µM] | TGI (UACC-257 melanoma) [µM] | TGI (MDA-MB-435) [µM] | TGI (BT-549 breast) [µM] | outcome (A549 NSCLC) | GI50 (NCI-H226 lung) [nM]
1 | CN(C)CCC(=O)/C=C\c1ccccc1 | 48.3 | 29.6 | 49.3 | 37 | 35.8 | 31.6 | 31.5 | – | – | – | –
2 | CC(=O)c1cnc2oc3ccc(O)cc3c2c1-c1ccccc1 | > 100 | > 100 | > 100 | > 100 | > 100 | > 100 | > 100 | > 100 | – | – | –
3 | C[C@H]1SC(c2ccc(Cl)cc2Cl)N(NC(=O)c2ccncc2)C1=O (some centres not stated) | – | – | 76.6 | > 100 | – | > 100 | – | 75.3 | > 100 | – | –
4 | COc1nc(C#CC(C)(C)C)nc(OC)n1 | > 100 | 61.4 | – | 37.6 | 73.3 | > 100 | > 100 | 84.5 | > 100 | – | –
5 | OCc1ccc2c(c1)CC1(Cc3ccc(/C=N/O)cc3C1)C2 (configuration not stated) | > 100 | > 100 | 71 | 35.2 | > 100 | > 49.3 | 18.7 | 1.51 | > 66.4 | – | –
6 | COC(=O)c1cc(C#N)[nH]c1-c1cc(Br)cs1 | 31.7 | 25.5 | 49.4 | 43.7 | 40.2 | 32.1 | 28.9 | 31.5 | 35.1 | – | –
7 | N#Cc1nc(NC(=O)c2ccccc2C(=O)O)c(C#N)[nH]1 | > 100 | > 100 | > 100 | > 100 | > 100 | > 100 | > 100 | > 100 | – | – | –
8 | NC(=O)N/N=C1\CC2C3CC4C2C4C13 (configuration not stated) | > 100 | > 100 | > 100 | > 100 | > 100 | > 100 | > 100 | > 100 | > 100 | – | –
9 | COc1ccc(C2c3cc4c(cc3OC(N3CCOCC3)C2C)OCO4)c(OC)c1OC (configuration not stated) | > 100 | 33.9 | – | > 100 | > 100 | – | 82.2 | 7.01 | – | – | –
10 | O=C(C(Cl)=C(N1CCOCC1)N1CCOCC1)C(Cl)Cl | > 100 | > 100 | > 100 | > 100 | > 100 | – | > 100 | > 100 | > 100 | – | –
11 | CC(=O)O[C@H]1CCc2c(cc(N)c3c2C(=O)C[C@]2(C)C([C@H](C)CCCC(C)C)CCC32C)C1(C)C (some centres not stated) | > 100 | – | > 100 | > 100 | > 100 | > 100 | > 100 | > 100 | > 100 | – | –
12 | CCOC(=O)/C(O)=C1\C(=O)N(C)C(=O)C1c1cccc(OC)c1 (configuration not stated) | > 100 | > 100 | > 100 | > 100 | > 100 | > 100 | > 100 | – | – | – | –
13 | Cc1ccc(C2=CC(=O)/C(=C\C(=O)c3ccc(Cl)cc3)O2)cc1 | – | 3.31 | 40 | 14.6 | 6.95 | 32 | 4.75 | 32.2 | 5.54 | – | –
14 | CN(C)CC1CCC(CN(C)C)C1=O (configuration not stated) | 39 | 14.4 | 38.8 | 10.3 | 10.4 | 50.2 | 17.6 | > 100 | – | – | –
15 | Oc1[nH]c2ccccc2c1N=NC(=S)Nc1ccc(Cl)cc1 | > 100 | > 100 | 86.4 | 98.8 | > 100 | > 100 | > 100 | > 100 | – | – | –
16 | COc1cc2c(c(O)c1OC)C(=O)C(Cc1ccc(O)cc1)CO2 (configuration not stated) | 60.7 | > 100 | > 100 | > 100 | > 100 | > 100 | > 100 | 7.24 | – | – | –
17 | N#Cc1c(-c2ccccc2)cc(-c2ccc(Cl)cc2)[nH]c1=S | > 100 | > 100 | 80.5 | > 100 | > 100 | 48.5 | – | 43.1 | > 100 | – | –
18 | COCCOCCOC1=CC(=O)c2c(O)ccc(O)c2C1=O | 3.38 | 3.11 | 3.88 | – | 1.72 | – | 1.43 | 0.108 | 3.2 | – | –
19 | N#Cc1nc(C2CCC2)oc1N | > 100 | > 100 | > 100 | > 100 | > 100 | > 100 | > 100 | > 100 | – | – | –
20 | c1c2c(cc(-n3nnc4c3CCCCCC4)c1-n1nnc3c1CCCCCC3)CCCCCC2 | – | 26.6 | 41.6 | 38.7 | 27.4 | 22.4 | 32.9 | – | – | inactive | –
21 | CC1(C)[C@H]2CC[C@@]13C(=O)N1C(=O)O[C@@H]([C@H]1Cl)C(Cl)(COCc1ccccc1)C(=O)OCCO[C@H]3C2 (some centres not stated) | > 100 | > 100 | – | > 100 | > 100 | > 100 | > 100 | > 100 | > 100 | – | –
22 | CN(C)CCNC(=O)c1cccc2nc(-c3ccccc3)oc12 | > 100 | > 71.8 | 84 | > 100 | > 100 | > 100 | 98.1 | – | – | – | –
23 | O=C1CSC2=NC3=C(COC/C3=C\c3ccc(Br)cc3)C(c3ccc(Br)cc3)N12 (configuration not stated) | – | > 100 | > 100 | > 100 | > 100 | > 100 | > 100 | > 100 | > 100 | – | –
24 | CO[C@@H]1O[C@H](C(=O)c2ccccc2)[C@H]2OC(C)(C)O[C@@H]12 | – | > 100 | > 100 | > 100 | > 100 | > 100 | > 100 | > 100 | > 100 | – | –
25 | COc1ccc(CC2COc3cc(O)cc(O)c3C2=O)cc1O (configuration not stated) | > 100 | > 100 | – | > 100 | > 100 | > 100 | > 100 | 3.68 | > 100 | – | –
26 | O=c1cc(/C=C/c2ccccc2)[nH]c2cc3c(cc12)OCO3 | 21.4 | – | 10.8 | 19.9 | 19.2 | 7.18 | 97.7 | 4.29 | 22 | – | 2910
